{"source": "paper PMC13199644", "about": "“Optimized Quantitative Bacterial Two-Hybrid (qB2H) for Protein–Protein Interaction Assessment” (Computational and Structural Biotechnology Journal, 2026)", "key": {"ASF1BN [1]": {"system": "ASF1BN", "assay": "qB2H v4 binder selection, long-term turbidostat (Chi.Bio), kanamycin 209 μg/ml, NGS enrichment/frequency", "assay_type": "cell-based", "conditions": "kanamycin 209 μg/ml (120% MIC50), TF/T0 frequency ratio", "procedure": "(§1) Design and selection of binders\n(§2) An AI pipeline integrating RFdiffusion, ProteinMPNN, and AlphaFold2 (detailed in Supplementary Methods) was implemented to design N-terminal extensions of ip4_mutG, a weak ASF1 binder (Kd ~10 μM). Briefly, N-terminal extensions of 11 to 16 amino acids were fused to linkers (GSEAK, GSEK, or GSK) and appended to the ip4_mutG coding sequence. Rational designs and controls (flexible N-terminal extensions) were incorporated into the library, ordered as oligonucleotide pools (oPools, IDT), and cloned into the v4 series plasmid for transformation into SB39 cells. Library selection was performed in 2 experimental setups: (a) short batch selection and (b) prolonged continuous selection in a turbidostat (Chi.Bio [61]).\n(§3) In the batch selection, induced cultures diluted to OD600 = 0.05 were exposed to kanamycin concentrations ranging from 0 to 348 μg/ml. […] Cultures were maintained at OD600 0.4 for 21 or 29 h, followed by an additional 3-h growth period after sample collection, totaling 24 and 32 h.\n(§4) Plasmids extracted from samples taken before (T0) and after selection (TF) were sequenced by NGS (Illumina), and reads corresponding to expected sequences were quantified to assess relative frequencies and enrichment.\nLong selection runs (continuous cultures under stable cell density—turbidostat)\nCulture conditions before kanamycin-based selection were identical to those in “short selection runs in batches” including T0 sample preparation. However, the turbidostat function of Chi.Bio system^11,12 was used to implement a continuous culture over extended selection periods. […] Samples (10 mL) were recovered at 21 and 29 h after selection initiation and cultured for an additional 3 hours (final OD ~ 2.5) totalizing, respectively, 24 (TF_24h) or 32 hours (TF_32h) selection.\n(§5) NGS sample preparation and analysis\n(§6) NGS samples were prepared by PCR using primer OR2895 with one of primers from OR2890– OR2894: 98 °C for 1 min; 26 cycles of (98 °C for 15 s.; 65 °C for 15 s.; 72 °C for 1 min) and 72 °C for 3 min.\n(§7) FASTQ-formatted assembled paired-end reads corresponding to the expected sequences were counted and their frequencies calculated. Enrichment of each variant was obtained by the TF/T0 frequency ratio."}, "SMT3": {"target": "T1, SMT3 (Saccharomyces cerevisiae, UniProt Q12306)", "T1 construct": "SMT3; UNIPROT: Q12306; 2-97; Saccharomyces cerevisiae; expressed in transfected cells; host or cells: E. coli BL21(DE3) transformed with VN594 plus a pBRα rpoA-fusion plasmid", "T1 sequence (Q12306 2-97)": "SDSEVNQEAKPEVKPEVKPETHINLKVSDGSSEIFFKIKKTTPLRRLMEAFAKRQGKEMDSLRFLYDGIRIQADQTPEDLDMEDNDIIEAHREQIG", "assay": "qB2H v1 fluorescence, SMT3 (SUMO) vs SUMO-interacting motifs", "assay_type": "cell-based, Escherichia coli", "conditions": "BL21(DE3), qB2H v1, cI-SMT3 2-97, IPTG(20µM)", "procedure": "Precultures of untransformed (for intrinsic fluorescence evaluation) and transformed SB39 cells were diluted (3 μl into 300 μl of fresh medium) in 2-ml microtubes and grown in ThermoMixer C (Eppendorf; 37 °C at 900 rpm) for 2 h. Cultures with an OD600 of approximately 0.5 were then mixed with 100 μl of the same medium containing 4× inducer concentration. […] The induced cultures were grown overnight at 18 °C, diluted (1 μl) in freshly filtered (0.22 μm) phosphate-buffered saline buffer (1 ml per OD unit), and analyzed using guava easyCyte HT (488-nm blue laser). The gating for event analysis was set to minimize background noise (fewer than 100 gated events per 10 μl of sterile phosphate-buffered saline). Ten thousand events were collected per culture, and the MFI was recorded. […] Their MFI were used to normalize those of other conditions (x) using the following equation [Eq. (1)]: Normalized MFIx=MFIx−MFIlow/MFIhigh−MFIlow × 100 (1)\nMFI(x) represents the MFI of a given condition or culture. […] Each experiment was conducted in 3 independent assays performed on different days. Figures were generated using Python notebooks in conjunction with Matplotlib.\nInteractions involving distinct protein domains and folding variants were assessed using qB2H systems v1, v2, and v3. […] The x-axis labels indicate the qB2H version and the interacting partners, formatted as follows: (qB2H version) Partner_A–Partner_B (inducers). Anhydrotetracycline (aTc) concentrations are reported in ng/mL; IPTG concentrations are given in µM. All experimental conditions, acronyms, and constructs are defined in the Methods section."}, "ASF1BN [2]": {"system": "ASF1BN", "assay": "qB2H v4 binder selection, short-term batch, kanamycin, NGS enrichment/frequency", "assay_type": "cell-based, bacterial", "conditions": "4 to 5 h, SB39 v4, TF/T0 frequency ratio", "procedure": "as §1, §2, §3, §4\nShort selection runs (batches)\nGlycerol stocks of mixed libraries were inoculated at approximately 18:00 in fresh media and grown overnight at 30 °C, to slow growth kinetics and reduce saturation-related stress (by decreasing the time spent in stationary phase). The grown cultures were diluted to OD600 = 0.05 in 150 mL of LB supplemented with 17 µg/mL chloramphenicol, 200 µM IPTG, 200 ng/mL aTc, and incubated (200 rpm, 37 °C) for 2 h (OD600 ~ 0.5). […] Assuming that sufficiently strong selection pressure can impact population growth over a short term (few hours), only cultures with OD at least 0.5 absorbance units lower than the OD of the culture without kanamycin after 4.5–5 h were retained for NGS analysis (TF-[ X µg/mL kan] samples).\nas §5, §6, §7"}, "TNFa": {"system": "TNFa", "assay": "qB2H v3 fluorescence, TNFa vs VHH/ScFv", "assay_type": "cell-based, Homo sapiens", "conditions": "SB39, v3, cI-TNFa 77-233, aTc(200ng/mL) + IPTG(1000µM)", "procedure": "(§8) Precultures of untransformed (for intrinsic fluorescence evaluation) and transformed SB39 cells were diluted (3 μl into 300 μl of fresh medium) in 2-ml microtubes and grown in ThermoMixer C (Eppendorf; 37 °C at 900 rpm) for 2 h. Cultures with an OD600 of approximately 0.5 were then mixed with 100 μl of the same medium containing 4× inducer concentration. Final inducer concentrations, chosen on the basis of maximal signal output, were 20 μM IPTG for v1 or v2 and 200 μM IPTG plus […] for v3 series. The induced cultures were grown overnight at 18 °C, diluted (1 μl) in freshly filtered (0.22 μm) phosphate-buffered saline buffer (1 ml per OD unit), and analyzed using guava easyCyte HT (488-nm blue laser). The gating for event analysis was set to minimize background noise (fewer than 100 gated events per 10 μl of sterile phosphate-buffered saline). Ten thousand events were collected per culture, and the MFI was recorded. […]\n(§9) MFI(x) represents the MFI of a given condition or culture. MFI(low) corresponds to the fluorescence produced by SB39 cells cotransformed with VN519 and VN550, indicating no detectable interaction (Kd > 100,000 nM). […]\nInteractions involving distinct protein domains and folding variants were assessed using qB2H systems v1, v2, and v3. […]"}, "ASF1BN [3]": {"system": "ASF1BN", "assay": "qB2H fluorescent reporter (eGFP MFI, flow cytometry or colonies), ASF1BN, v1 to v3", "assay_type": "cell-based, human", "conditions": "relative to ip3_mut3A and ip1", "procedure": "qB2H experiments using a fluorescent reporter\nas §8, §9"}, "[4]": {"conditions": "ChiBio_T24_Kan209, turbidostat 24 h"}, "[5]": {"conditions": "ChiBio_T32_Kan209, turbidostat 32 h"}, "[6]": {"conditions": "Batch_Kan261, kanamycin 261 μg/ml (150% MIC50 of ASF1–ip3)"}, "[7]": {"conditions": "Batch_Kan348, kanamycin 348 μg/ml (200% MIC50 of ASF1–ip3)"}}, "note": "No end group written: not given here."}
{"substance": "AAEEAARFAALLAALP-GSK-ip4_mutG [T32_Kan[209]_top2, AI design n°218 with GSK linker]", "values": [{"measurement": "enrichment", "setting": "ASF1BN [1]; [4]", "result": "7.72E+01"}, {"measurement": "enrichment", "setting": "ASF1BN [1]; [5]", "result": "8.39E+01"}]}
{"substance": "CDC48 72-91: CDC48 P25694 region 72-91, SUMO-interacting motif peptide (KKRKDTVLIVLIDDELEDGA; UniProt P25694 72-91, looked up, fragment)", "values": [{"measurement": "Norm. MFI", "setting": "SMT3", "result": 46.16, "unit": "%"}]}
{"substance": "CDC48 431-450: CDC48 P25694 region 431-450, SUMO-interacting motif peptide (QQIREKMDLIDLDEDEIDAE; UniProt P25694 431-450, looked up, fragment)", "values": [{"measurement": "Norm. MFI", "setting": "SMT3", "result": 9.91, "unit": "%"}]}
{"substance": "KPEAAASAAAEQAAFAALLAALPGSKWARLARRTAGAGGVTLNGAG [AI design n°217 with GSK linker]", "values": [{"measurement": "enrichment", "setting": "ASF1BN [2]; [6]", "result": "3.15E+00"}]}
{"substance": "KPEAAASAAAEQAHFAALLAKLPGSKWARLARRTAGAGGVTLNGAG [AI design n°225 with GSK linker]", "values": [{"measurement": "enrichment", "setting": "ASF1BN [2]; [7]", "result": "4.18E+00"}]}
{"substance": "KPEAAASAAEEQAAFDALLAALPGSKWARLARRTAGAGGVTLNGAG [AI design n°261 with GSK linker; third of turbidostat T32_Kan[209]]", "values": [{"measurement": "enrichment", "setting": "ASF1BN [1]; [4]", "result": "6.25E+00"}, {"measurement": "enrichment", "setting": "ASF1BN [1]; [5]", "result": "1.11E+01"}]}
{"substance": "KPEAAASAEAEAARFAALLAALPGSKWARLARRTAGAGGVTLNGAG [AI design n°220 with GSK linker]", "values": [{"measurement": "enrichment", "setting": "ASF1BN [1]; [4]", "result": "4.84E-02"}, {"measurement": "enrichment", "setting": "ASF1BN [1]; [5]", "result": "5.25E-02"}]}
{"substance": "KPEAAASAEAERWAQALAALPGSKWARLARRTAGAGGVTLNGAG [AI design n°32 with GSK linker]", "values": [{"measurement": "enrichment", "setting": "ASF1BN [2]; [6]", "result": "4.25E+00"}]}
{"substance": "KPEAAASAEEEEAAFAALLAALPGSKWARLARRTAGAGGVTLNGAG [AI design n°233 with GSK linker]", "values": [{"measurement": "enrichment", "setting": "ASF1BN [1]; [4]", "result": "1.42E+00"}, {"measurement": "enrichment", "setting": "ASF1BN [1]; [5]", "result": "2.04E+00"}]}
{"substance": "KPEAAASAEEEQARFAALLAALPGSKWARLARRTAGAGGVTLNGAG [AI design n°250 with GSK linker]", "values": [{"measurement": "enrichment", "setting": "ASF1BN [2]; [7]", "result": "4.27E+00"}]}
{"substance": "KPEAAASDAAARFAAALAALPGSKWARLARRTAGAGGVTLNGAG [AI design n°37 with GSK linker]", "values": [{"measurement": "enrichment", "setting": "ASF1BN [2]; [6]", "result": "4.90E+00"}]}
{"substance": "KPEAAASMSSHQLWKQWGGGSEKWARLARRTAGAGGVTLNGAG [Rational design n°84 with GSEK linker]", "values": [{"measurement": "enrichment", "setting": "ASF1BN [2]; [6]", "result": "2.46E+00"}]}
{"substance": "KPEAAASSAAERFAAALAALPGSKWARLARRTAGAGGVTLNGAG [AI design n°47 with GSK linker; third of batch Kan[348]]", "values": [{"measurement": "enrichment", "setting": "ASF1BN [2]; [7]", "result": "4.66E+00"}]}
{"substance": "ScFv (D2E7): Adalimumab ScFV; WIPO: WO2011084714A2", "values": [{"measurement": "Norm. MFI", "setting": "TNFa", "result": 8.76, "unit": "%"}]}
{"substance": "Srs2_SIM: SUMO-interacting motif, P12954 1164-1174, Saccharomyces cerevisiae (KLNNGEIIVID; UniProt P12954 1164-1174, looked up, fragment)", "values": [{"measurement": "Norm. MFI", "setting": "SMT3", "result": 62.95, "unit": "%"}]}
{"substance": "WARLARRTAGAGGVTLNGAG [ip4_mutG]", "values": [{"measurement": "qB2H signal", "setting": "ASF1BN [3]", "result": "between ip3_mut3A and ip1"}]}
